Data reported in patent US20010000177A1, “Novel class of thiomorpholino substituted thiazoles” (priority 1999, published 2001).
≈ marks a conversion by molar mass, not a printed value. Marks after values point to notes of the source that are not given here.

Tests used:
Type in all cases: cell-based
[1] = system: Candida and Cryptococcus strains (organism not given); test: Broth microdilution antifungal activity, Table II third MIC/MCC column pair; conditions: for MIC = Minimum inhibitory concentration (50% Inhibition): 48 hrs, 35° C., YNB broth pH 7.0; for MCC = Minimum cytolytic concentration: subculture on SDA plate
Description: (§1) Organisms: Three strains of Candida (Candida parpsilosis, Candida tropicalis, Candida albicans-ATCC 36082) as well as Cryptococcus neoformans were used for the initial testing. Active compounds were then tested against fluconazole resistant Candida albicans, Candida krusei, Torulopsis glabrata, and Cryptococcus neoformans along with Sporothrix shenkii and Aspergillus flavus in the secondary round of testing. All clinical strains used in this study were blood culture isolates from the Clinical Microbiology Laboratory of Harbor-UCLA Medical Center, Torrance, Calif. The organisms were maintained on Sabourahd Dextrose Agar slants at 4° C. For experimentation, singlet suspensions of each organism were prepared by growing the yeast overnight at 27° C. on a rotating drum in yeast-nitrogen base broth (YNB) with amino acids (Difco, Detroit, Mich.), pH 7.0 with 0.05M morpholinepropanesulfonic acid (MOPS). The suspension was then centrifuged and washed twice with 0.85% NaCl. This was followed by sonication of the washed cell suspension for 4s (Branson Sonifier, model 350, Danbury, Conn.). The singlet blastospores were counted in a hemocytometer and adjusted to the desired concentration in 0.85% NaCl.
(§2) Antifungal Activity: The antifungal activity of the compounds and Fluconazole against the Candida and Cryptococcus strains were determined using a modification of a broth microdilution technique. Test compounds were diluted in DMSO to a 1.0 mg/ml ratio then diluted to 64 μg/ml in YNB broth, pH 7.0 with MOPS (Fluconazole was used as the control). This was to provide a working solution of each compound. Using a 96-well plate, wells 1 and 3 through 12 were prepared with YNB broth, […] dilutions of the compound solution were made in wells 2 through 11 (concentration ranges were 64 to 0.125 μg/ml). Well one served as a sterility control and blank for the spectrophotometric assays. Well twelve served as a growth control. The microtiter plates were inoculated with 10 ul in each of well 2 through 11 (final inoculum size was 10^4 organisms/ml). Inoculated plates were incubated for 48 hrs., at 35° C. The MIC values were determined spectrophotometrically by measuring the absorbance at 420 nm (Automatic Microplate Reader, DuPont Instruments, Wilmington, Del.) after agitation of the plates for 2 min with a vortex-mixer (Vorte-Genie 2 Mixer, Scientific Industries, Inc., Bolemia, N.Y.). […] With the turbidity assay this was defined as the lowest drug concentration at which turbidity in the well was <50% of the control (IC50) Minimal Cytolytic Concentrations (MCC) were determined by subculturing all wells from the 96-well plate onto a Sabourahd Dextrose Agar (SDA) plate and incubated for 1 to 2 days at 35° C. and the viability was checked.

[2] = system: Candida and Cryptococcus strains (organism not given); test: Broth microdilution antifungal activity, Table II fourth MIC/MCC column pair; conditions: for MIC = Minimum inhibitory concentration (50% Inhibition) / MCC = Minimum cytolytic concentration: fourth column pair of Table II; for MIC = Minimum inhibitory concentration (50% Inhibition): YNB broth pH 7.0; for MCC = Minimum cytolytic concentration: subculture on SDA plate
Description: as §1, with “Active compounds were then tested against fluconazole resistant Candida albicans, Candida krusei, Torulopsis glabrata, and Cryptococcus neoformans along with Sporothrix shenkii and Aspergillus flavus in the secondary round of testing.” left out
as §2

[3] = system: Candida and Cryptococcus strains (organism not given); test: Broth microdilution antifungal activity, Table II second MIC/MCC column pair; conditions: second column pair of Table II; for MIC = Minimum inhibitory concentration (50% Inhibition): 48 hrs, 35° C., YNB broth pH 7.0; for MCC = Minimum cytolytic concentration: subculture on SDA plate
Description: as §1, §2

[4] = system: Candida and Cryptococcus strains (organism not given); test: Broth microdilution antifungal activity, Table II first MIC/MCC column pair; conditions: for MIC = Minimum inhibitory concentration (50% Inhibition) / MCC = Minimum cytolytic concentration: first column pair of Table II; for MIC = Minimum inhibitory concentration (50% Inhibition): YNB broth pH 7.0; for MCC = Minimum cytolytic concentration: subculture on SDA plate
Description: as §1, with “Active compounds were then tested against fluconazole resistant Candida albicans, Candida krusei, Torulopsis glabrata, and Cryptococcus neoformans along with Sporothrix shenkii and Aspergillus flavus in the secondary round of testing.” left out
as §2

SMILES	MIC = Minimum inhibitory concentration (50% Inhibition) [1] [µg/mL]	MIC = Minimum inhibitory concentration (50% Inhibition) ([2]; 48 hrs, 35° C.) [µg/mL]	MIC = Minimum inhibitory concentration (50% Inhibition) [3] [µg/mL]	MIC = Minimum inhibitory concentration (50% Inhibition) ([4]; 48 hrs, 35° C.)	MIC ([2]; Candida, 48 h, pH 7, fourth column pair of Table II, 48 hrs, 35° C., YNB broth pH 7.0, read-out: MIC = Minimum inhibitory concentration (50% Inhibition)) [µg/mL]	MIC ([4]; Candida, 48 h, pH 7, first column pair of Table II, 48 hrs, 35° C., YNB broth pH 7.0, read-out: MIC = Minimum inhibitory concentration (50% Inhibition)) [µg/mL]	MCC = Minimum cytolytic concentration [1] [µg/mL]	MCC = Minimum cytolytic concentration [2] [µg/mL]	MCC = Minimum cytolytic concentration [3] [µg/mL]	MCC = Minimum cytolytic concentration [4] [µg/mL]
CN(C)CCN(C)Cc1ccc(-c2csc(-c3ccc(Cl)cc3)n2)cc1 [Example 1u, 2-(4′-chlorophenyl)-4-[4″-(N-methyl-N-(2-dimethylaminoethyl)aminomethyl)-phenyl]thiazole]	4 (≈ 10.4 µM)	4 (≈ 10.4 µM)	4 (≈ 10.4 µM)	8 µg/mL (≈ 20.7 µM)	–	–	4	4	4	8
C[C@@H]1[C@H](O)[C@@H](C)/C=C/C=C/C=C/C=C/C=C/C=C/C=C/[C@H](O[C@@H]2O[C@H](C)[C@@H](O)[C@H](N)[C@@H]2O)C[C@@H]2O[C@](O)(C[C@@H](O)C[C@@H](O)[C@H](O)CC[C@@H](O)C[C@@H](O)CC(=O)O[C@H]1C)C[C@H](O)[C@H]2C(=O)O [Amp-B, amphotericin B, reference compound]	–	<0.03	0.25 (≈ 0.271 µM)	0.25 µg/mL (≈ 0.271 µM)	–	–	–	–	–	–
C=CCN(C)Cc1ccc(-c2csc(-c3ccc([N+](=O)[O-])cc3)n2)cc1 [Example 1h, 2-(4′-nitrophenyl)-4-[4″-(N-methyl-N-allylaminomethyl)phenyl]thiazole]	0.125 (≈ 0.342 µM)	0.5 (≈ 1.37 µM)	0.25 (≈ 0.684 µM)	0.5^c μg/ml	–	–	0.5	2	1	2
COc1ccc(-c2nc(-c3ccc(CN(C)CCO)cc3)cs2)cc1[N+](=O)[O-] [Example 1ll, 2-(4′-methoxy-3′-nitrophenyl)-4-[4″-(N-methyl-N-(2-hydroxy-ethyl)amino-methyl)phenyl]thiazole]	4 (≈ 10 µM)	2 (≈ 5.01 µM)	2 (≈ 5.01 µM)	8 µg/mL (≈ 20 µM)	–	–	4	8	2	8
CNCCN(C)Cc1ccc(-c2csc(-c3ccc(Cl)cc3)n2)cc1 [Example 1tt, 2-(4′-chlorophenyl)-4-[4″-(N-methyl-N-(2-N-methylaminoethyl)-amino-methyl)phenyl]thiazole]	2 (≈ 5.38 µM)	2 (≈ 5.38 µM)	4 (≈ 10.8 µM)	4 µg/mL (≈ 10.8 µM)	–	–	16	4	16	16
C=CCN(C)Cc1ccc(-c2csc(-c3cccc([N+](=O)[O-])c3)n2)cc1 [Example 1k, 2-(3′-nitrophenyl)-4-[4″-(N-methyl-N-allylaminomethyl)phenyl]thiazole]	0.25 (≈ 0.684 µM)	0.25 (≈ 0.684 µM)	0.25 (≈ 0.684 µM)	0.5 µg/mL (≈ 1.37 µM)	–	–	0.25	0.5	0.5	1
CN(C)Cc1ccc(-c2csc(-c3ccc([N+](=O)[O-])cc3)n2)cc1 [Example 1x, 2-(4′-nitrophenyl)-4-[4″-(dimethylaminomethyl)phenyl]thiazole]	1 (≈ 2.95 µM)	2 (≈ 5.89 µM)	1 (≈ 2.95 µM)	1 µg/mL (≈ 2.95 µM)	–	–	2	2	2	2
CN(C)CCNCc1ccc(-c2csc(-c3ccc(Cl)cc3)n2)cc1 [Example 1jj, 2-(4′-chlorophenyl)-4-[4″-(N-(2-dimethylaminoethyl)aminomethyl)phenyl]thiazole]	4 (≈ 10.8 µM)	8 (≈ 21.5 µM)	4 (≈ 10.8 µM)	8 µg/mL (≈ 21.5 µM)	–	–	4	8	4	8
CN(C/C=C/c1ccccc1)Cc1cccc2ccccc12 [Naftifine, reference compound]	–	–	–	–	4 (≈ 13.9 µM)	32 (≈ 111 µM)	–	–	–	–

Now from value to compound, other results behind:

MIC = Minimum inhibitory concentration (50% Inhibition) [1] [µg/mL]	MIC = Minimum inhibitory concentration (50% Inhibition) ([2]; 48 hrs, 35° C.) [µg/mL]	MIC = Minimum inhibitory concentration (50% Inhibition) [3] [µg/mL]	MIC = Minimum inhibitory concentration (50% Inhibition) ([4]; 48 hrs, 35° C.)	MIC ([2]; Candida, 48 h, pH 7, fourth column pair of Table II, 48 hrs, 35° C., YNB broth pH 7.0, read-out: MIC = Minimum inhibitory concentration (50% Inhibition)) [µg/mL]	MIC ([4]; Candida, 48 h, pH 7, first column pair of Table II, 48 hrs, 35° C., YNB broth pH 7.0, read-out: MIC = Minimum inhibitory concentration (50% Inhibition)) [µg/mL]	SMILES	MCC = Minimum cytolytic concentration [1] [µg/mL]	MCC = Minimum cytolytic concentration [2] [µg/mL]	MCC = Minimum cytolytic concentration [3] [µg/mL]	MCC = Minimum cytolytic concentration [4] [µg/mL]
1 (≈ 2.52 µM)	1 (≈ 2.52 µM)	0.5 (≈ 1.26 µM)	1 µg/mL (≈ 2.52 µM)	–	–	CCCN(C)Cc1ccc(-c2csc(-c3ccc(OC)c([N+](=O)[O-])c3)n2)cc1 [Example 6k, 2-(4′-methoxy-3′-nitrophenyl)-4-[4″-(N-methyl-N-propylamino-methyl)phenyl]thiazole]	2	1	2	2
0.25 (≈ 0.677 µM)	0.25 (≈ 0.677 µM)	0.25 (≈ 0.677 µM)	0.5 µg/mL (≈ 1.35 µM)	–	–	COc1ccc(-c2nc(-c3ccc(CN(C)C)cc3)cs2)cc1[N+](=O)[O-] [Example 6l, 2-(4′-methoxy-3′-nitrophenyl)-4-[4″-(dimethylaminomethyl)phenyl]thiazole]	1	0.5	0.5	1
2 (≈ 4.9 µM)	4 (≈ 9.79 µM)	4 (≈ 9.79 µM)	8 µg/mL (≈ 19.6 µM)	–	–	CCCN(C)Cc1ccc(-c2csc(-c3ccc(C(F)(F)F)cc3F)n2)cc1 [Example 6f, 2-(2′-fluoro-4′-trifluoromethylphenyl)-4-[4″-(N-methyl-N-propylamino-methyl)phenyl]thiazole]	8	8	8	16
